Measurements published in ChEMBL document CHEMBL1201861, “Genomics of Drug Sensitity in Cancer screening data, Wellcome Trust Sanger Institute”.

Experiments:
Assay in all cases: cells
Settings in all cases: Homo sapiens
[1] = test system: COR-L88; assay type: functional, cell-based;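 further: growth inhibition of COR-L88 cells, read out with a cell viability assay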
Description: SANGER: Inhibition of human COR-L88 cell growth in a cell viability assay.

[2] = test system: CTB-1; assay type: functional, cell-based
Description: SANGER: Inhibition of human CTB-1 cell growth in a cell viability assay.

[3] = test system: D283 Med; assay type: functional, cell-based
Description: SANGER: Inhibition of human D-283MED cell growth in a cell viability assay.

[4] = test system: DB; assay type: functional, cell-based
Description: SANGER: Inhibition of human DB cell growth in a cell viability assay.

[5] = test system: ES1; assay type: functional, cell-based;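 further: growth inhibition of ES1 cells, read out with a cell viability assay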
Description: SANGER: Inhibition of human ES1 cell growth in a cell viability assay.

[6] = test system: ES3; assay type: functional, cell-based;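 further: growth inhibition of ES3 cells, read out with a cell viability assay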
Description: SANGER: Inhibition of human ES3 cell growth in a cell viability assay.

[7] = test system: ES6; assay type: functional, cell-based;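 further: growth inhibition of human ES6 cells, read out with a cell viability assay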
Description: SANGER: Inhibition of human ES6 cell growth in a cell viability assay.

[8] = test system: ES8; assay type: functional, cell-based;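 further: growth inhibition of human ES8 cells, read out with a cell viability assay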
Description: SANGER: Inhibition of human ES8 cell growth in a cell viability assay.

[9] = test system: EW-13; assay type: functional, cell-based;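 further: growth inhibition of EW-13 cells, read out with a cell viability assay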
Description: SANGER: Inhibition of human EW-13 cell growth in a cell viability assay.

[10] = test system: EW-16; assay type: functional, cell-based;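 further: growth inhibition of human EW-16 cells, read out as cell viability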
Description: SANGER: Inhibition of human EW-16 cell growth in a cell viability assay.

[11] = test system: EW-3; assay type: functional, cell-based;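 further: cell viability assay read-out, IC50 reflects inhibition of growth of the EW-3 cells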
Description: SANGER: Inhibition of human EW-3 cell growth in a cell viability assay.

[12] = test system: GB-1; assay type: functional, cell-based;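 further: growth of GB-1 cells judged by a viability assay, IC50 marks the concentration inhibiting growth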
Description: SANGER: Inhibition of human GB-1 cell growth in a cell viability assay.

[13] = test system: GI-1; assay type: functional, cell-based;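 further: growth inhibition of human GI-1 cells, measured with a cell viability readout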
Description: SANGER: Inhibition of human GI-1 cell growth in a cell viability assay.

[14] = test system: GR-ST; assay type: functional, cell-based
Description: SANGER: Inhibition of human GR-ST cell growth in a cell viability assay.

[15] = test system: HCE-4; assay type: functional, cell-based;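 further: cell viability assay measuring inhibition of growth in the human HCE-4 cell line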
Description: SANGER: Inhibition of human HCE-4 cell growth in a cell viability assay.

[16] = test system: HDLM-2; assay type: functional, cell-based;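 further: cell viability assay measuring suppression of HDLM-2 proliferation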
Description: SANGER: Inhibition of human HDLM-2 cell growth in a cell viability assay.

[17] = test system: HEL; assay type: functional, cell-based;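 further: growth inhibition of HEL cells, read out with a cell viability assay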
Description: SANGER: Inhibition of human HEL cell growth in a cell viability assay.

[18] = test system: J-RT3-T3-5; assay type: functional, cell-based;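 further: cell viability assay measuring growth inhibition of human J-RT3-T3-5 cells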
Description: SANGER: Inhibition of human J-RT3-T3-5 cell growth in a cell viability assay.

[19] = test system: JAR; assay type: functional, cell-based;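 further: growth inhibition of human JAR cells determined with a cell viability assay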
Description: SANGER: Inhibition of human JAR cell growth in a cell viability assay.

[20] = test system: JVM-3; assay type: functional, cell-based;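 further: growth inhibition of human JVM-3 cells, read out with a cell viability assay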
Description: SANGER: Inhibition of human JVM-3 cell growth in a cell viability assay.

[21] = test system: K5; assay type: functional, cell-based
Description: SANGER: Inhibition of human K5 cell growth in a cell viability assay.

[22] = test system: KG-1; assay type: functional, cell-based;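 further: growth inhibition of KG-1 cells, read out by a cell viability assay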
Description: SANGER: Inhibition of human KG-1 cell growth in a cell viability assay.

[23] = test system: KGN; assay type: functional, cell-based;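 further: growth inhibition of KGN cells, read out with a cell viability assay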
Description: SANGER: Inhibition of human KGN cell growth in a cell viability assay.

[24] = test system: KM12; assay type: functional, cell-based;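 further: KM12 cell growth inhibition, read out with a cell viability assay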
Description: SANGER: Inhibition of human KM12 cell growth in a cell viability assay.

[25] = test system: KP-N-YS; assay type: functional, cell-based;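 further: cell viability assay measuring inhibition of cell line growth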
Description: SANGER: Inhibition of human KP-N-YS cell growth in a cell viability assay.

[26] = test system: LB1047-RCC; assay type: functional, cell-based;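 further: inhibition of cell growth, determined with a cell viability assay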
Description: SANGER: Inhibition of human LB1047-RCC cell growth in a cell viability assay.

[27] = test system: LB771-HNC; assay type: functional, cell-based;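 further: growth inhibition of LB771-HNC human cells, read out with a cell viability assay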
Description: SANGER: Inhibition of human LB771-HNC cell growth in a cell viability assay.

[28] = test system: LB831-BLC; assay type: functional, cell-based;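 further: growth inhibition of LB831-BLC cells, read out with a cell viability assay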
Description: SANGER: Inhibition of human LB831-BLC cell growth in a cell viability assay.

[29] = test system: LOX IMVI; assay type: functional, cell-based
Description: SANGER: Inhibition of human LOXIMVI cell growth in a cell viability assay.

[30] = test system: LS-411N; assay type: functional, cell-based
[31] = test system: MFH-ino; assay type: functional, cell-based;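 further: growth inhibition of human MFH-ino cells, read out by a cell viability assay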
Description: SANGER: Inhibition of human MFH-ino cell growth in a cell viability assay.

[32] = test system: MOLT-16; assay type: functional, cell-based;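 further: growth inhibition of human MOLT-16 cells, read out with a cell viability assay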
Description: SANGER: Inhibition of human MOLT-16 cell growth in a cell viability assay.

[33] = test system: MOLT-4; assay type: functional, cell-based;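 further: growth inhibition of MOLT-4 cells, determined with a cell viability readout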
Description: SANGER: Inhibition of human MOLT-4 cell growth in a cell viability assay.

[34] = test system: MS-1; assay type: functional, cell-based;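 further: growth inhibition of MS-1 cells, read out by cell viability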
Description: SANGER: Inhibition of human MS-1 cell growth in a cell viability assay.

[35] = test system: MV4-11; assay type: functional, cell-based, MV-4-11;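 further: cell viability readout measuring growth inhibition of human MV-4-11 cells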
Description: SANGER: Inhibition of human MV-4-11 cell growth in a cell viability assay.

[36] = test system: MZ1-PC; assay type: functional, cell-based;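 further: cell viability assay measuring growth inhibition of human MZ1-PC cells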
Description: SANGER: Inhibition of human MZ1-PC cell growth in a cell viability assay.

[37] = test system: MZ7-mel; assay type: functional, cell-based;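 further: growth inhibition of human MZ7-mel cells, measured by a cell viability assay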
Description: SANGER: Inhibition of human MZ7-mel cell growth in a cell viability assay.

[38] = test system: NB69; assay type: functional, cell-based;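 further: growth inhibition of NB69 cells, determined by a cell viability assay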
Description: SANGER: Inhibition of human NB69 cell growth in a cell viability assay.

[39] = test system: NCI-H1355; assay type: functional, cell-based;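 further: growth inhibition of human NCI-H1355 cells, read out by a cell viability assay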
Description: SANGER: Inhibition of human NCI-H1355 cell growth in a cell viability assay.

[40] = test system: NCI-H1581; assay type: functional, cell-based;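 further: cell growth inhibition read out by a viability assay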
Description: SANGER: Inhibition of human NCI-H1581 cell growth in a cell viability assay.

[41] = test system: NCI-H1648; assay type: functional, cell-based;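 further: cell viability assay measuring inhibition of NCI-H1648 cell growth, from the Sanger screening data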
Description: SANGER: Inhibition of human NCI-H1648 cell growth in a cell viability assay.

[42] = test system: NCI-H1838; assay type: functional, cell-based;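 further: growth inhibition of NCI-H1838 cells, determined with a cell viability readout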
Description: SANGER: Inhibition of human NCI-H1838 cell growth in a cell viability assay.

[43] = test system: NCI-H209; assay type: functional, cell-based;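 further: growth inhibition of human NCI-H209 cells, measured by a cell viability assay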
Description: SANGER: Inhibition of human NCI-H209 cell growth in a cell viability assay.

[44] = test system: NCI-H526; assay type: functional, cell-based;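 further: growth inhibition of the human NCI-H526 cell line, measured by a cell viability assay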
Description: SANGER: Inhibition of human NCI-H526 cell growth in a cell viability assay.

[45] = test system: NMC-G1; assay type: functional, cell-based;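 further: growth inhibition of the NMC-G1 cell line, measured with a cell viability read-out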
Description: SANGER: Inhibition of human NMC-G1 cell growth in a cell viability assay.

[46] = test system: RKO; assay type: functional, cell-based;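 further: growth inhibition of human RKO cells, read out with a cell viability assay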
Description: SANGER: Inhibition of human RKO cell growth in a cell viability assay.

[47] = test system: RPMI-8226; assay type: functional, cell-based
Description: SANGER: Inhibition of human RPMI-8226 cell growth in a cell viability assay.

[48] = test system: SBC-1; assay type: functional, cell-based;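 further: cell viability assay measuring growth inhibition of the SBC-1 cell line, IC50 being the concentration that halves growth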
Description: SANGER: Inhibition of human SBC-1 cell growth in a cell viability assay.

[49] = test system: SCC-15; assay type: functional, cell-based;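 further: growth inhibition of SCC-15 cells, read out with a cell viability assay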
Description: SANGER: Inhibition of human SCC-15 cell growth in a cell viability assay.

[50] = test system: SK-MEL-1; assay type: functional, cell-based;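 further: growth inhibition of human SK-MEL-1 cells, read out by a cell viability assay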
Description: SANGER: Inhibition of human SK-MEL-1 cell growth in a cell viability assay.

[51] = test system: SK-PN-DW; assay type: functional, cell-based;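 further: growth inhibition measured with a viability assay on these cells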
Description: SANGER: Inhibition of human SK-PN-DW cell growth in a cell viability assay.

[52] = test system: SW 954; assay type: functional, cell-based;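 further: growth inhibition of SW954 human cancer cells, read out as cell viability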
Description: SANGER: Inhibition of human SW954 cell growth in a cell viability assay.

[53] = test system: TE-1; assay type: functional, cell-based;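 further: growth inhibition of the human TE-1 cell line, read out with a cell viability assay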
Description: SANGER: Inhibition of human TE-1 cell growth in a cell viability assay.

[54] = test system: 697; assay type: functional, cell-based
Description: SANGER: Inhibition of human 697 cell growth in a cell viability assay.

[55] = test system: A388; assay type: functional, cell-based;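 further: growth inhibition of human A388 cells, read out with a cell viability assay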
Description: SANGER: Inhibition of human A388 cell growth in a cell viability assay.

[56] = test system: A4-Fuk; assay type: functional, cell-based;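 further: growth inhibition of A4-Fuk cells, read out by a cell viability assay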
Description: SANGER: Inhibition of human A4-Fuk cell growth in a cell viability assay.

[57] = test system: ACN; assay type: functional, cell-based
Description: SANGER: Inhibition of human ACN cell growth in a cell viability assay.

[58] = test system: BB49-HNC; assay type: functional, cell-based
Description: SANGER: Inhibition of human BB49-HNC cell growth in a cell viability assay.

[59] = test system: C2BBe1; assay type: functional, cell-based
Description: SANGER: Inhibition of human C2BBe1 cell growth in a cell viability assay.

[60] = test system: TE-11; assay type: functional, cell-based
Description: SANGER: Inhibition of human TE-11 cell growth in a cell viability assay.

[61] = test system: TE-5; assay type: functional, cell-based
Description: SANGER: Inhibition of human TE-5 cell growth in a cell viability assay.

[62] = test system: TE-6; assay type: functional, cell-based
Description: SANGER: Inhibition of human TE-6 cell growth in a cell viability assay.

[63] = test system: TE-9; assay type: functional, cell-based
Description: SANGER: Inhibition of human TE-9 cell growth in a cell viability assay.

[64] = test system: U-266; assay type: functional, cell-based
Description: SANGER: Inhibition of human U-266 cell growth in a cell viability assay.

[65] = test system: CGTH-W-1; assay type: functional, cell-based
Description: SANGER: Inhibition of human CGTH-W-1 cell growth in a cell viability assay.

[66] = test system: COLO-684; assay type: functional, cell-based
Description: SANGER: Inhibition of human COLO-684 cell growth in a cell viability assay.

Q: For `CC(O)(CS(=O)(=O)c1ccc(F)cc1)C(=O)Nc1ccc(C#N)c(C(F)(F)F)c1` (configuration not stated) [BICALUTAMIDE], which IC50 [1] is on record?
A: The IC50 was over 1.02 µM.

Q: What about the IC50 [2] of the same molecule?
A: The IC50 was over 1.02 µM.

Q: And the IC50 [3]?
A: Its IC50 is over 1.02 µM.

Q: And the IC50 [4]?
A: Its IC50 is over 1.02 µM.

Q: What about the IC50 [5] of the same molecule?
A: The IC50 was over 1.02 µM.

Q: And the IC50 [6]?
A: Its IC50 is over 1.02 µM.

Q: What about the IC50 [7] of the same molecule?
A: Its IC50 is over 1.02 µM.

Q: What about the IC50 [8] of the same molecule?
A: The IC50 was over 1.02 µM.

Q: And the IC50 [9]?
A: The IC50 was over 1.02 µM.

Q: What about the IC50 [10] of the same molecule?
A: The IC50 was over 1.02 µM.

Q: And the IC50 [11]?
A: Its IC50 is over 1.02 µM.

Q: And the IC50 [12]?
A: The IC50 was over 1.02 µM.

Q: And the IC50 [13]?
A: The IC50 was over 1.02 µM.

Q: And the IC50 [14]?
A: The IC50 was over 1.02 µM.

Q: And the IC50 [15]?
A: The IC50 was over 1.02 µM.

Q: And the IC50 [16]?
A: Its IC50 is over 1.02 µM.

Q: What about the IC50 [17] of the same molecule?
A: Its IC50 is over 1.02 µM.

Q: And the IC50 [18]?
A: Its IC50 is over 1.02 µM.

Q: What about the IC50 [19] of the same molecule?
A: Its IC50 is over 1.02 µM.

Q: What about the IC50 [20] of the same molecule?
A: The IC50 was over 1.02 µM.

Q: And the IC50 [21]?
A: The IC50 was over 1.02 µM.

Q: And the IC50 [22]?
A: Its IC50 is over 1.02 µM.

Q: And the IC50 [23]?
A: The IC50 was over 1.02 µM.

Q: What about the IC50 [24] of the same molecule?
A: Its IC50 is over 1.02 µM.

Q: What about the IC50 [25] of the same molecule?
A: Its IC50 is over 1.02 µM.

Q: What about the IC50 [26] of the same molecule?
A: Its IC50 is over 1.02 µM.

Q: What about the IC50 [27] of the same molecule?
A: Its IC50 is over 1.02 µM.

Q: What about the IC50 [28] of the same molecule?
A: The IC50 was over 1.02 µM.

Q: And the IC50 [29]?
A: The IC50 was over 1.02 µM.

Q: What about the IC50 [30] of the same molecule?
A: Its IC50 is over 1.02 µM.

Q: What about the IC50 [31] of the same molecule?
A: The IC50 was over 1.02 µM.

Q: What about the IC50 [32] of the same molecule?
A: Its IC50 is over 1.02 µM.

Q: And the IC50 [33]?
A: Its IC50 is over 1.02 µM.

Q: What about the IC50 [34] of the same molecule?
A: The IC50 was over 1.02 µM.

Q: What about the IC50 [35] of the same molecule?
A: Its IC50 is over 1.02 µM.

Q: And the IC50 [36]?
A: The IC50 was over 1.02 µM.

Q: What about the IC50 [37] of the same molecule?
A: Its IC50 is over 1.02 µM.

Q: What about the IC50 [38] of the same molecule?
A: The IC50 was over 1.02 µM.

Q: What about the IC50 [39] of the same molecule?
A: The IC50 was over 1.02 µM.

Q: What about the IC50 [40] of the same molecule?
A: Its IC50 is over 1.02 µM.

Q: And the IC50 [41]?
A: Its IC50 is over 1.02 µM.

Q: And the IC50 [42]?
A: Its IC50 is over 1.02 µM.

Q: And the IC50 [43]?
A: The IC50 was over 1.02 µM.

Q: What about the IC50 [44] of the same molecule?
A: The IC50 was over 1.02 µM.

Q: What about the IC50 [45] of the same molecule?
A: The IC50 was over 1.02 µM.

Q: What about the IC50 [46] of the same molecule?
A: Its IC50 is over 1.02 µM.

Q: What about the IC50 [47] of the same molecule?
A: Its IC50 is over 1.02 µM.

Q: What about the IC50 [48] of the same molecule?
A: The IC50 was over 1.02 µM.

Q: And the IC50 [49]?
A: Its IC50 is over 1.02 µM.

Q: What about the IC50 [50] of the same molecule?
A: The IC50 was over 1.02 µM.

Q: What about the IC50 [51] of the same molecule?
A: The IC50 was over 1.02 µM.

Q: What about the IC50 [52] of the same molecule?
A: The IC50 was over 1.02 µM.

Q: What about the IC50 [53] of the same molecule?
A: The IC50 was over 1.02 µM.

Q: And the IC50 [54]?
A: Its IC50 is over 1.02 µM.

Q: And the IC50 [55]?
A: The IC50 was over 1.02 µM.

Q: What about the IC50 [56] of the same molecule?
A: Its IC50 is over 1.02 µM.

Q: And the IC50 [57]?
A: Its IC50 is over 1.02 µM.

Q: What about the IC50 [58] of the same molecule?
A: Its IC50 is over 1.02 µM.

Q: And the IC50 [59]?
A: Its IC50 is over 1.02 µM.

Q: And the IC50 [60]?
A: Its IC50 is over 1.02 µM.

Q: And the IC50 [61]?
A: The IC50 was over 1.02 µM.

Q: And the IC50 [62]?
A: Its IC50 is over 1.02 µM.

Q: What about the IC50 [63] of the same molecule?
A: The IC50 was over 1.02 µM.

Q: And the IC50 [64]?
A: Its IC50 is over 1.02 µM.

Q: What about the IC50 [65] of the same molecule?
A: The IC50 was over 1.02 µM.

Q: What about the IC50 [66] of the same molecule?
A: The IC50 was over 1.02 µM.

Q: Which results are given for `C[C@]1(c2nc3c(C(N)=O)cccc3[nH]2)CCCN1` [VELIPARIB]?
A: IC50 [1]: > 5 µM; IC50 [2]: > 5 µM; IC50 [3]: > 5 µM; IC50 [4]: > 5 µM; IC50 [5]: > 5 µM; IC50 [6]: > 5 µM; IC50 [7]: > 5 µM; IC50 [8]: > 5 µM; IC50 [9]: > 5 µM; IC50 [10]: > 5 µM; IC50 [11]: > 5 µM; IC50 [12]: > 5 µM; IC50 [13]: > 5 µM; IC50 [14]: > 5 µM; IC50 [15]: > 5 µM; IC50 [16]: > 5 µM; IC50 [17]: > 5 µM; IC50 [18]: > 5 µM; IC50 [19]: > 5 µM; IC50 [20]: > 5 µM; IC50 [21]: > 5 µM; IC50 [22]: > 5 µM; IC50 [23]: > 5 µM; IC50 [24]: > 5 µM; IC50 [25]: > 5 µM; IC50 [26]: > 5 µM; IC50 [27]: > 5 µM; IC50 [28]: > 5 µM; IC50 [29]: > 5 µM; IC50 [30]: > 5 µM; IC50 [31]: > 5 µM; IC50 [32]: > 5 µM; IC50 [33]: > 5 µM; IC50 [34]: > 5 µM; IC50 [35]: > 5 µM; IC50 [36]: > 5 µM; IC50 [37]: > 5 µM; IC50 [38]: > 5 µM; IC50 [39]: > 5 µM; IC50 [40]: > 5 µM; IC50 [41]: > 5 µM; IC50 [42]: > 5 µM; IC50 [43]: > 5 µM; IC50 [44]: > 5 µM; IC50 [45]: > 5 µM; IC50 [46]: > 5 µM; IC50 [47]: > 5 µM; IC50 [48]: > 5 µM; IC50 [49]: > 5 µM; IC50 [50]: > 5 µM; IC50 [51]: > 5 µM; IC50 [52]: > 5 µM; IC50 [53]: > 5 µM; IC50 [54]: > 5 µM; IC50 [55]: > 5 µM; IC50 [56]: > 5 µM; IC50 [57]: > 5 µM; IC50 [58]: > 5 µM; IC50 [59]: > 5 µM; IC50 [60]: > 5 µM; IC50 [61]: > 5 µM; IC50 [62]: > 5 µM; IC50 [63]: > 5 µM; IC50 [64]: > 5 µM; IC50 [65]: > 5 µM; IC50 [66]: > 5 µM
